Results: patent US20050070544A1, “1,2,5,10-tetrahydropyridazino{4,5-b}quinoline-1,10-diones and their use for the treatment of pain” (AstraZeneca AB, priority 2000, published 2005)
Counter-ions that a name gives are not always drawn.

Assays:
[1] = target: T1, NMDA receptor glycine site (Rattus norvegicus, UniProt P35439); assay: Test A: Inhibition of binding of [3H]-MDL105,519
T1 construct: fresh brain tissue including cerebral cortex and hippocampus from male Sprague Dawley rats was homogenized; tissue Analytical Biological Services Inc; host or cells: rat brain membranes (cerebral cortex and hippocampus, male Sprague Dawley rats)
Method: Test A: Inhibition of Binding of [^3H]-MDL105,519:
Binding of compounds to the NMDA receptor glycine site may be assessed by measuring the ability of test compounds to inhibit the binding of tritiated MDL105,519 to brain membranes bearing the receptor.
Rat Brain Membranes: The rat brain membranes used in the experiments were obtained from Analytical Biological Services Inc., and were prepared substantially in accordance with the method of B. M. Baron et al., J. Pharmacol. Exp. Ther. 250, 162 (1989). Briefly, fresh brain tissue including cerebral cortex and hippocampus from male Sprague Dawley rats was homogenized in 0.32 M sucrose and centrifuged at low speed to separate cellular membranes from other cellular components. The membranes were then washed 3 times using deionized water, followed by treatment with 0.04% Triton X-100. Finally, membranes were washed six times in 50 mM Tris citrate buffer, pH 7.4, and frozen at −80° C. until use.
[^3]MDL105,519 (72 Ci/mmol) was purchased from Amersham. Cold MDL105,519 was purchased from Sigma/RBI. Binding assays were performed substantially in accordance with the protocol of B. M. Baron et al., J. Pharmacol. Exp. Ther. 279, 62 (1996), as follows. On the day of the experiment, brain membranes were thawed at room temperature and suspended in 50 mM tris acetate buffer, pH 7.4 (“TAB”). Seventy-five micro grams per milliliter protein (by using the BioRad dye) were used for competition binding. The experiments were carried out using 96-well plates. Membranes were incubated with […] of compounds of various concentrations and 1.2 nM [^3H]MDL105,519 for 30 minutes at room temperature in a total volume of 250 μL. Non specific binding was determined by using 100 μM of unlabeled MDL105,519. The unlabeled MDL105,519 and compounds were dissolved as 12.5 mM stock solutions in DMSO. Final DMSO concentration in each well was kept below 1%, which concentration was found not to alter the binding results. After incubation, unbound [^3H]MDL105,519 was removed by filtration onto GF/B Unifilter plates using a Packard harvester. Filters were washed four times with ice cold TAB (total of 1.2 mL buffer). The plates were dried overnight at room temperature and bound radioactivity was measured on a Packard TopCount after the addition of 45 μL per well of the MICROSCINT O.
Human Brain Membranes: Human brain membranes were obtained from Analytical Biological Services Inc., and assays were performed as described for rat membranes.
Data analysis: Data was analyzed using a Microsoft Excel spreadsheet and GraphPad Prizm software and potency of compounds is expressed as the Ki (nM).

Row | Compound | melting point [°C] | Ki [1] [nM]
1 | O=c1c2ccc(Cl)cc2[nH]c2c(O)nn(CC#Cc3ccncc3)c(=O)c12 (as salt: methanesulfonate) [Ex. 1, 7-Chloro-4-hydroxy-2-(3-(4-pyridyl)prop-2-ynyl)1,2,5,10-tetrahydropyridazino[4,5-b]quinoline-1,10-dione 1,3 methanesulfonate] | 238 to 241 | –
2 | O=c1c2ccc(Cl)cc2[nH]c2c(O)nn(CC#Cc3ccncc3)c(=O)c12 [Ex. 1, 7-Chloro-4-hydroxy-2-(3-(4-pyridyl)prop-2-ynyl)1,2,5,10-tetrahydropyridazino[4,5-b]quinoline-1,10-dione 1,3 methanesulfonate] | – | 67.6
3 | O=c1c2ccc(Cl)cc2[nH]c2c(O)nn(CC#Cc3cccc(Cl)c3)c(=O)c12 [Ex. 2, 7-Chloro-4-hydroxy-2-[3-(3-chlorophenyl)prop-2-ynyl]-1,2,5,10-tetrahydropyridazino[4,5-b]quinoline-1,10-dione] | 220 to 222 | 7.86
4 | O=c1c2ccc(Cl)cc2[nH]c2c(O)nn(CC#Cc3ccc(Cl)cc3)c(=O)c12 [Ex. 3, 7-Chloro-4-hydroxy-2-[3-(4-chlorophenyl)prop-2-ynyl]-1,2,5,10-tetrahydropyridazino[4,5-b]quinoline-1,10-dione] | 251 to 252 | 86.6
5 | O=c1c2ccc(Cl)cc2[nH]c2c(O)nn(CC#Cc3ccccc3Cl)c(=O)c12 [Ex. 4, 7-Chloro-4-hydroxy-2-[3-(2-chlorophenyl)prop-2-ynyl]-1,2,5,10-tetrahydropyridazino[4.5-b]quinoline-1.10-dione] | 255 to 257 | 113
6 | CS(=O)(=O)O.O=c1c2ccc(Cl)cc2[nH]c2c(O)nn(CC#Cc3cccnc3)c(=O)c12 [Ex. 5, 7-Chloro-4-hydroxy-2-(3-(3-pyridyl)prop-2-ynyl)-1,2,5,10-tetrahydropyridazino[4,5-b]quinoline-1,10-dione methanesulfonate] | 227 to 229 | 14
7 | O=c1c2ccc(Cl)cc2[nH]c2c(O)nn(CC#Cc3ccc(Cl)nc3)c(=O)c12 [Ex. 6, 7-Chloro-2-[3-(6-chloro(3-pyridyl))prop-2-ynyl]-4-hydroxy-2,5-dihydropyridazino[4,5-b]quinoline-1,10-dione] | – | 106
